Assay results published in patent publication US20260356990A1, “HEPARIN DODECASACCHARIDES CONTAINING TWO ANTITHROMBIN-BINDING SEQUENCES AS WELL AS PREPARATION METHODS AND APPLICATIONS THEREOF” (SHANDONG UNIVERSITY, priority 2022, published 2026).
pIC50: −log10 of the molar value.

What was measured:
[1] = tested on: factor Xa; experiment: anti-factor Xa (FXa) activity, chromogenic substrate assay kit; assay type: biochemical; details: in vitro; for IC50 for anti-FXa activity: mass concentration; for pIC50: molar concentration
Description: The anti-factor Xa (FXa) activity of the novel heparin dodecasaccharides I-2 and I-10 prepared in the present disclosure was determined using a commercially available chromogenic substrate assay kit. […] Therefore, the novel heparin dodecasaccharides I-2 and I-10 prepared in the present disclosure are specific inhibitors of factor Xa.

[2] = tested on: factor Xa; experiment: neutralization effect of protamine on the anti-factor Xa activity, chromogenic substrate assay; assay type: biochemical; details: in vitro, protamine at different concentrations
Description: Using the chromogenic substrate assay, the effect of different concentrations of protamine on the anti-Factor Xa (FXa) activity of the novel heparin dodecasaccharides I-2 and I-10 was evaluated. […] The in vitro anti-FXa activity of the novel heparin dodecasaccharide I-2 could be reversed by >80% with protamine, as shown in FIG. 4. Therefore, the heparin dodecasaccharides I-2 and I-10 prepared in the present disclosure are novel heparin molecules whose anticoagulant activity can be neutralized by protamine.

[3] = tested on: factor IIa; experiment: anti-factor IIa activity; assay type: biochemical; details: in vitro; data not shown
[4] = tested on: anticoagulant effect; details: background statement; cited from earlier work

| SMILES | IC50 for anti-FXa activity [1] | pIC50 [1] | reversal of the anti-FXa activity by protamine (in words) [2] | anti-factor IIa activity [3] | neutralization of the anticoagulant effect by protamine (in words) [4] |
| --- | --- | --- | --- | --- | --- |
| CC(=O)N[C@H]1[C@@H](O[C@H]2[C@H](O)[C@@H](O)[C@H](O[C@H]3[C@H](OS(=O)(=O)O)[C@@H](NS(=O)(=O)O)[C@@H](O[C@H]4[C@H](O)[C@@H](OS(=O)(=O)O)[C@H](O[C@H]5[C@H](O)[C@@H](NS(=O)(=O)O)[C@@H](O[C@H]6[C@H](O)[C@@H](O)[C@H](Oc7ccc([N+](=O)[O-])cc7)O[C@@H]6C(=O)O)O[C@@H]5COS(=O)(=O)O)O[C@H]4C(=O)O)O[C@@H]3COS(=O)(=O)O)O[C@@H]2C(=O)O)O[C@H](COS(=O)(=O)O)[C@@H](O[C@@H]2O[C@@H](C(=O)O)[C@@H](O[C@H]3O[C@H](COS(=O)(=O)O)[C@@H](O[C@@H]4O[C@@H](C(=O)O)[C@@H](O[C@H]5O[C@H](COS(=O)(=O)O)[C@@H](O[C@@H]6O[C@H](C(=O)O)[C@@H](O[C@H]7O[C@H](COS(=O)(=O)O)[C@@H](O)[C@H](O)[C@H]7NS(=O)(=O)O)[C@H](O)[C@H]6O)[C@H](OS(=O)(=O)O)[C@H]5NS(=O)(=O)O)[C@H](O)[C@H]4OS(=O)(=O)O)[C@H](O)[C@H]3NS(=O)(=O)O)[C@H](O)[C@H]2OS(=O)(=O)O)[C@@H]1O [Compound I-10] | 0.01803 µg/mL | 8.34 | completely reversed | no significant anti-factor IIa activity | – |
| CO[C@H]1O[C@H](COS(=O)(=O)O)[C@@H](O[C@@H]2O[C@@H](C(=O)O)[C@@H](O[C@H]3O[C@H](COS(=O)(=O)O)[C@@H](O[C@@H]4O[C@H](C(=O)O)[C@@H](O[C@H]5O[C@H](COS(=O)(=O)O)[C@@H](O)[C@H](O)[C@H]5NS(=O)(=O)O)[C@H](O)[C@H]4O)[C@H](OS(=O)(=O)O)[C@H]3NS(=O)(=O)O)[C@H](O)[C@H]2OS(=O)(=O)O)[C@H](O)[C@H]1NS(=O)(=O)O [fondaparinux sodium (Arixtra), reference compound] | 0.01263 µg/mL | 8.14 | almost completely unneutralizable | – | not neutralized by protamine |
| CC(=O)N[C@H]1[C@@H](O[C@H]2[C@H](O)[C@@H](O)[C@H](O[C@H]3[C@H](OS(=O)(=O)O)[C@@H](NS(=O)(=O)O)[C@@H](O[C@H]4[C@H](O)[C@@H](OS(=O)(=O)O)[C@H](O[C@H]5[C@H](O)[C@@H](NS(=O)(=O)O)[C@@H](O[C@H]6[C@H](O)[C@@H](O)[C@H](Oc7ccc([N+](=O)[O-])cc7)O[C@@H]6C(=O)O)O[C@@H]5COS(=O)(=O)O)O[C@H]4C(=O)O)O[C@@H]3COS(=O)(=O)O)O[C@@H]2C(=O)O)O[C@H](COS(=O)(=O)O)[C@@H](O[C@@H]2O[C@H](C(=O)O)[C@@H](O[C@H]3O[C@H](COS(=O)(=O)O)[C@@H](O[C@@H]4O[C@@H](C(=O)O)[C@@H](O[C@H]5O[C@H](COS(=O)(=O)O)[C@@H](O[C@@H]6O[C@H](C(=O)O)[C@@H](O[C@H]7O[C@H](COS(=O)(=O)O)[C@@H](O)[C@H](O)[C@H]7NS(=O)(=O)O)[C@H](O)[C@H]6O)[C@H](OS(=O)(=O)O)[C@H]5NS(=O)(=O)O)[C@H](O)[C@H]4OS(=O)(=O)O)[C@H](O)[C@H]3NS(=O)(=O)O)[C@H](O)[C@H]2O)[C@@H]1O [Compound I-2] | 0.01677 µg/mL | 8.36 | – | no significant anti-factor IIa activity | – |
